Entries after “also recorded” stand apart in the source; their conditions may differ.
Experiments:
plasma tryptophan = conditions: HIV infected subjects, supplementation; cited from earlier work
CD4/CD8 ratio = CD4/CD8 ratio in NR dose escalation study in SIV infected macaques; type: in vivo, rhesus macaque; conditions: SIV infected animals; highest dose (400 mg/kg)
Protocol: (§1) As described herein, an increase in the kynurenine to tryptophan ratios in the SIV macaque model was identified, with a positive correlation with viral load and soluble CD163 in plasma. […] In an effort to modulate the kynurenine pathway, and decrease tryptophan metabolism, a dose escalation study was performed with the NAD salvage pathway precursor, nicotinamide riboside (NR), in SIV infected macaques. […] This monocyte subset has been implicated in the pathogenesis of HIV infection, HAND, as well as other HIV associated comorbidities. […] The regulation of the kynurenine pathway appears to be complex, yet an attractive target for HIV therapeutics. Understanding the mechanism by which HIV modulates the kynurenine pathway could provide new therapeutic targets for the treatment of HIV and HAND.

CD14+/CD16+ monocytes = test: Flow cytometry of CD14/CD16 on PBMC monocytes of NR-treated rhesus macaques; type: in vivo, rhesus macaque; conditions: for CD16 expression on CD14+ monocytes (FACS dot plots): five seronegative and four seropositive macaques, before vs after NR
Protocol: (§2) PBMC from five seronegative and four seropositive rhesus macaques were analyzed after treatment with increasing concentrations of nicotinamide riboside (NR) over a 5-week period.
PBMC from five seronegative and four seropositive rhesus macaques were stained with antibodies to CD14 and CD16 and analyzed by flow cytometry after treatment with increasing concentrations of NR over a 5-week period. The mean fluorescence intensity (MFI) and percent frequency (% Freq) of CD16 was determined for each animal. […] One-way ANOVA was performed *P≤0.05; **P≤0.01; ***P≤0.001; n=9.
as §2, with “Experiments were then conducted to examine whether nicotinamide riboside treatment effects CD16 expression on CD14+ monocytes. PBMC” for “PBMC”
Experiments were then conducted to examine the effects of NR treatment on CD14 and CD16 expression. PBMC from five seronegative and four seropositive rhesus macaques were stained with antibodies to CD14 and CD16 and analyzed by flow cytometry after treatment with increasing concentrations of NR over a 5-week period. The mean fluorescence intensity (MFI) and percent frequency (% Freq) of CD16 was determined for each animal.

[1] = tested on: kynurenine to tryptophan ratio; test: Plasma kynurenine to tryptophan ratio (KTR) in NR-treated rhesus macaques; type: in vivo, rhesus macaque
Protocol: FIG. 8A depicts the KTR in SIV infected animals treated with different concentrations of NR. FIG. 8B depicts the KTR in uninfected animals treated with different concentrations of NR.
as §1
Experiments were then conducted to examine if kynurenine to tryptophan ratios of SIV infected macaques correlate with sCD163 plasma level, ATP plasma level, and viral load. ELISA kits were used according to the manufacturer's directions to determine plasma concentrations of sCD163, kynurenine and tryptophan. Plasma ATP levels were analyzed using ATPLite assay. It was determined that kynurenine to tryptophan ratios increased in relations to higher viral loads (r=0.4774; p=0.0028) (FIG. 5A). Further, a positive correlation between kynurenine to tryptophan ratio and sCD163 plasma concentration was observed (r=0.473; p=0.0027) (FIG. 5B).

human monocytes = test: CD16 expression in human monocytes isolated from donor PBMCs in the presence of M-CSF; type: cell-based; conditions: M-CSF treatment, in vitro
Description: FIG. 12 depicts the flow cytometry gating strategy used to separate two CD16 positive monocyte subsets.
FIG. 14 depicts the mean fluorescent intensity for CD16 expression in human monocytes isolated from donor PBMCs in the presence of M-CSF treatment.

SIV = test: Viral load in SIV infected macaques treated with NR (latency reversal); type: in vivo, rhesus macaque
Description: Four SIV infected macaques were followed over time during chronic infection, two treated with combination anti-retroviral therapy (cART), and two non-treated.

[2] = tested on: macrophage colony-stimulating factor (M-CSF); test: M-CSF in NR treated macaques; type: in vivo, rhesus macaque
Description: FIG. 11 depicts experimental results showing that macrophage colony-stimulating factor (M-CSF) is reduced in NR treated macaques.

NAD+ = NAD+ concentration in PBMC of rhesus macaques treated with increasing NR over 5 weeks; type: in vivo, rhesus macaque; conditions: SIV infected rhesus macaques, increasing concentrations of NR over a 5 week period
Protocol: Peripheral blood mononuclear cells (PBMC) from five seronegative and four seropositive rhesus macaques were lysed and assayed for NAD+ concentration after treatment with increasing concentrations of nicotinamide riboside (NR) over a 5 week period. […] Paired T test and one way ANOVA was performed *P≤0.05; **P≤0.01 n=9.
Experiments were then conducted to examine the effect of nicotinamide riboside treatment on NAD+ levels in SIV infected animals. Peripheral blood mononuclear cells (PBMC) from five seronegative and four seropositive rhesus macaques were lysed and assayed for NAD+ concentration after treatment with increasing concentrations of nicotinamide riboside (NR) over a 5 week period.

intracellular NAD+ = conditions: at micromolar concentrations; cited from earlier work
CD38 = CD38 (Homo sapiens, UniProt P28907); conditions: at micromolar concentrations; cited from earlier work
IDO = conditions: cited from earlier work
HIV = conditions: in vitro and in patients; cited from earlier work
[3] = tested on: adipose tissue macrophage infiltration; conditions: mice; cited from earlier work
HIV/AIDS = conditions: prior to the advent of cART; cited from earlier work
[4] = listed as nicotinamide riboside
[5] = uninfected and SIV infected macaques, before vs after NR over 5 weeks

CD38, sequence (P28907 whole entry, species assumed): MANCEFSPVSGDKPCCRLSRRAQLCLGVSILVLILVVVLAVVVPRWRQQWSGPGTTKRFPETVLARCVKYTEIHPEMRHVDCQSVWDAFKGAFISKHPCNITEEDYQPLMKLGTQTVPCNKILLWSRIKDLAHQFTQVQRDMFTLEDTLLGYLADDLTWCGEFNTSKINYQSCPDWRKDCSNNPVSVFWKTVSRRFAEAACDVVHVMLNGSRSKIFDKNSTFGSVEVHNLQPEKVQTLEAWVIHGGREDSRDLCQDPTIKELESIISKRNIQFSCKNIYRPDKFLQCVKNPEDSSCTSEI

NC(=O)c1cccnc1 [nicotinamide]
plasma tryptophan levels (plasma tryptophan): increases plasma tryptophan levels

NC(=O)c1ccc[n+]([C@@H]2O[C@H](CO)[C@@H](O)[C@H]2O)c1 [NR, nicotinamide riboside]
CD4/CD8 ratio (CD4/CD8 ratio): decrease CD4/CD8 ratio | CD16 expression on CD14+ monocytes (FACS dot plots) (CD14+/CD16+ monocytes): decreased in all animals examined | CD16 expression on CD14+ monocytes (FACS dot plots) (CD14+/CD16+ monocytes; [4]): significantly decreases | mean fluorescence intensity (MFI) of CD16 on CD14+/CD16+ monocytes (CD14+/CD16+ monocytes; [5]): significantly reduced; also recorded: significantly higher than after treatment; also recorded: significantly decreases | percent frequency of CD14+/CD16+ monocytes (% Freq of CD16) (CD14+/CD16+ monocytes; [5]): significantly reduced; also recorded: significantly decreases | kynurenine to tryptophan ratio ([1]; SIV infected animals, 100 mg/kg dose): appeared to increase | kynurenine to tryptophan ratio (KTR) ([1]; SIV infected animals, different concentrations of NR): decreased; also recorded: decreases KTR | kynurenine to tryptophan ratio (KTR) ([1]; uninfected (seronegative) animals, relative to pretreatment values): no significant impact | CD16 monocyte subset expression (human monocytes): inhibits CD16 monocyte expression induced by M-CSF; also recorded: reduces CD16 monocyte subset expression | function as latency reversing agent for SIV infection (SIV; SIV infected rhesus macaques): potential for NR to function as a latency reversing agent; also recorded: may function as a latency reversing agent | viral load (SIV; four SIV infected macaques, chronic infection, two on cART, two non-treated, all treated with NR): evidence for viral load increase in all animals | viral load over time (SIV; the animal on cART with the lowest viral load): increase in viral load and then decrease over time | M-CSF level [2]: reduces M-CSF; also recorded: reduced | NAD+ concentration in PBMC (NAD+): significantly increased | NAD+ concentration in PBMC (NAD+; [4]): increases NAD+ levels

O=c1cc(-c2ccc(O)cc2)oc2cc(O)cc(O)c12 [apigenin]
intracellular NAD+ (intracellular NAD+): increase intracellular NAD+ | inhibition of CD38 enzyme activity (CD38): inhibit CD38 enzyme activity

Cn1cc(C[C@H](N)C(=O)O)c2ccccc21 [1-methyl tryptophan]
effect on tryptophan depletion or alterations in the kynurenine pathway (IDO; SIV/rhesus macaque model, IDO blockade): incapable of affecting | disturbance in K/T over-time (IDO; infected animals vs controls): increased the disturbance in K/T over-time in infected animals but not in controls

O=C(CCCCCCC(=O)Nc1ccccc1)NO [vorinostat]
latency reversal on repeated dosages (HIV): diminishing returns over time

O=c1c(O)c(-c2ccc(O)c(O)c2)oc2cc(O)cc(O)c12 [quercetin]
intracellular NAD+ (intracellular NAD+): increase intracellular NAD+ | SIRT-1 activity [3]: increased SIRT-1 activity | inflammatory cytokine levels in tissue and sera (TNFα, MCP-1, IL-6) [3]: reduced inflammatory cytokine levels | obesity associated adipose tissue macrophage infiltration [3]: reduce obesity associated adipose tissue macrophage infiltration | inhibition of CD38 enzyme activity (CD38): inhibit CD38 enzyme activity

O=C(O)c1cccnc1 [niacin]
delay of progression of HIV/AIDS (HIV/AIDS): some benefit in delaying the progression of HIV/AIDS

From patent publication US10722529B2, “Modulation of NAD+ metabolic pathways for treatment of disease” (Temple University—Of The Commonwealth System of Higher …, priority 2015, dated 2020)
